# Data published in US10215746B2, “Methods for diagnosis and intervention of hepatic disorders” (The Regents of the University of Colorado, priority 2005, dated 2019).
# Where two headings read alike, the source gives them in different places.
# Experiments:
# [1] = single intravenous injection; cited from earlier work
# [2] = in vivo; cited from earlier work
# chronic hepatitis C = conditions: 90 μg/week vs no treatment; cited from earlier work
# [3] = cited from earlier work
# [4] = cited from earlier work; remark: listed apart in the source
# [5] = Dissolution of cholate for oral solution; format: physicochemical; conditions: aqueous sodium bicarbonate
compound,measurement,setting,value
O=C[C@H](O)[C@@H](O)[C@@H](O)[C@H](O)CO [galactose],share of total plasma elimination due to distribution and metabolism outside the liver,[1],40%
same,share of total plasma elimination due to hepatic clearance,[1],Approximately 60%
Cc1cc(=O)n(-c2ccccc2)n1C [antipyrine],drug appearing unchanged in the urine,[2],5%
peginterferon alfa-2a [PegIFN],effect on clinical or histological outcomes,chronic hepatitis C,did not affect clinical or histological outcomes
CC1(C)C(/C=C/C=C/C=C/C=C2\N(CCCCS(=O)(=O)O)c3ccc4ccccc4c3C2(C)C)=[N+](CCCCS(=O)(=O)[O-])c2ccc3ccccc3c21 [Indocyanine green],first-pass hepatic extraction,[3]; administered intravenously,up to 80%
CCN(CC)CC(=O)Nc1c(C)cccc1C [Lidocaine],side effects (sensory symptoms),[4]; lower dose (less than 1 mg/kg such as 0.5 mg/kg) iv,30%
same,side effects (sensory symptoms),[4]; standard dose 1 mg/kg iv over 2 minutes,53%
same,first pass elimination,[3]; in vivo,up to 81%
"C[C@H](CCC(=O)O)[C@H]1CC[C@H]2[C@@H]3[C@H](O)C[C@@H]4C[C@H](O)CC[C@]4(C)[C@H]3C[C@H](O)[C@]12C [Cholate, cholic acid]",dissolution,[5],easily dissolved
